The values below come from patent US8329940B2, “18β-glycyrrhetinic acid derivatives and synthetic method thereof” (Kaohsiung Medical University, priority 2009, dated 2012).

For data set [1], the system named is iNOS protein expression. The data set is described as follows: iNOS protein expression in LPS-stimulated RAW 264.7 cells (Western blot). The format is cell-based, Murine. The settings on record: RAW 264.7, LPS 50 ng/mL. The method, then:
(§1) Nitrite is a stable metabolite of NO in the media based on Griess reaction. […] To determine whether the inhibition of NO production in RAW 264.7 cells is attributed to the decrease of iNOS protein expression, Western blotting analysis is performed. Unstimulated cells expressed very low level of iNOS protein, whereas LPS 50 ng/mL induced a large amount of iNOS protein expression. […] Thus, the blockade of iNOS transcription has a critical role as evidenced from the parallelism of the inhibition of NO production and iNOS protein expression by compound 14.

Data set [2] has as its system plasmid pBR322DNA. The data set is described as follows: Inhibition of oxidative DNA damage by O2− from xanthine/xanthine oxidase (agarose gel electrophoresis). Conditions: 500 μM compound, xanthine (2 mM)/xanthine oxidase (0.7 U/mL), 20 min, 37° C. The method, then: A mixture of the plasmid pBR322DNA ([…]) and xanthine (2 mM)/xanthine oxidase (0.7 U/mL) in 10 mM phosphate buffer (pH 7.4) is incubated for 20 min with 500 μlM of superoxide dismutase, quercetin, or compounds 2, 6, 7, 13, 14, and 20 in a total volume of 20 μL at 37° C., respectively. After incubating for 20 min, a 15 μL aliquot of mixture is loaded into 1.0% agarose gel containing ethidium bromide (0.05 μg/mL) in Tris-acetate-ethylenediaminetetraacetic acid (EDTA) buffer. The electrophoresis is carried out for 30 min at 100 V. Then the gels are illuminated with UV light and photographed.
ROS have been known to damage many biological macromolecules, for instance, with DNA being a significant target. The ability of 18β-GA derivatives to inhibit the DNA damage caused by O2^− (generated by xanthine (XA)/XO) is studied in vitro by agarose gel electrophoresis. […] For determined the antioxidant activities of these compounds, the radical scavenging activities and XO inhibitory activities of these compounds are analyzed.

Data set [3] concerns the target xanthine oxidase (XO). The experiment in a line: Xanthine oxidase activity assay. The class given is biochemical. Conditions: xanthine as substrate, 25° C., 295 nm. How it is done: (§2) The xanthine oxidase activity with xanthine as the substrate is measured at 25° C., according to the protocol of Kong and associates (Cell Mol. […] After preincubation at 25° C. for 15 min, the reaction is initiated by addition of 60 μL of substrate solution (150 μM xanthine in the same buffer). The reaction is monitored at 295 nm. The xanthine oxidase activity is expressed as micromoles of uric acid per minute.

Data set [4] relates to superoxide anion formation from rat neutrophils stimulated with PMA. The experiment in a line: Superoxide anion formation in rat neutrophils stimulated by PMA. The class given is cell-based. Conditions: Neutrophil; rat neutrophils stimulated with PMA.
Data set [5] has as its system accumulation of NO2− in RAW 264.7 cells stimulated with LPS. The experiment in a line: Nitrite (NO2−) accumulation in RAW 264.7 cells stimulated with LPS (Griess reaction). The format is cell-based, Murine. The settings on record: for IC50: RAW 264.7 cells stimulated with LPS, 24 h, read-out: IC50 (B) accumulation of NO2− in RAW 264.7. The method, then: as §1
On the technique in general: Nitrite, measured by Griess reagent, commonly stands in for NO production.

The target in data set [6] is xanthine oxidase (XO) (Homo sapiens, UniProt P47989). The data set is described as follows: Xanthine oxidase activity assay. The class given is biochemical. The settings on record: xanthine as substrate, 25° C. How it is done:
as §2

The subject of data set [7] is superoxide anion formation from rat neutrophils stimulated with fMLP/CB. The data set is described as follows: Superoxide anion formation in rat neutrophils stimulated by fMLP/CB. The settings on record: rat neutrophils stimulated with fMLP (0.3 μM)/CB (5 μg/mL), 30 min. The class given is cell-based. The method, then: Compound stock solution (30 mM in DMSO) is prepared and stored at −25° C. before experiment. In the superoxide anion generation experiments, neutrophils isolated from the peripheral blood of the rats are stimulated with formyl-Met-Leu-Phe (fMLP, 0.3 μM)/Cytochalasin B (CB, 5 μg/mL) for 30 min in the presence of cytochrome c, and the superoxide anion generation is measured in terms of superoxide dismutase-inhibitable cytochrome c reduction.

Read-outs that look alike come from different tables or passages of the source.

Chain of xanthine oxidase (XO) (Homo sapiens, UniProt P47989) (P47989 whole entry, species assumed): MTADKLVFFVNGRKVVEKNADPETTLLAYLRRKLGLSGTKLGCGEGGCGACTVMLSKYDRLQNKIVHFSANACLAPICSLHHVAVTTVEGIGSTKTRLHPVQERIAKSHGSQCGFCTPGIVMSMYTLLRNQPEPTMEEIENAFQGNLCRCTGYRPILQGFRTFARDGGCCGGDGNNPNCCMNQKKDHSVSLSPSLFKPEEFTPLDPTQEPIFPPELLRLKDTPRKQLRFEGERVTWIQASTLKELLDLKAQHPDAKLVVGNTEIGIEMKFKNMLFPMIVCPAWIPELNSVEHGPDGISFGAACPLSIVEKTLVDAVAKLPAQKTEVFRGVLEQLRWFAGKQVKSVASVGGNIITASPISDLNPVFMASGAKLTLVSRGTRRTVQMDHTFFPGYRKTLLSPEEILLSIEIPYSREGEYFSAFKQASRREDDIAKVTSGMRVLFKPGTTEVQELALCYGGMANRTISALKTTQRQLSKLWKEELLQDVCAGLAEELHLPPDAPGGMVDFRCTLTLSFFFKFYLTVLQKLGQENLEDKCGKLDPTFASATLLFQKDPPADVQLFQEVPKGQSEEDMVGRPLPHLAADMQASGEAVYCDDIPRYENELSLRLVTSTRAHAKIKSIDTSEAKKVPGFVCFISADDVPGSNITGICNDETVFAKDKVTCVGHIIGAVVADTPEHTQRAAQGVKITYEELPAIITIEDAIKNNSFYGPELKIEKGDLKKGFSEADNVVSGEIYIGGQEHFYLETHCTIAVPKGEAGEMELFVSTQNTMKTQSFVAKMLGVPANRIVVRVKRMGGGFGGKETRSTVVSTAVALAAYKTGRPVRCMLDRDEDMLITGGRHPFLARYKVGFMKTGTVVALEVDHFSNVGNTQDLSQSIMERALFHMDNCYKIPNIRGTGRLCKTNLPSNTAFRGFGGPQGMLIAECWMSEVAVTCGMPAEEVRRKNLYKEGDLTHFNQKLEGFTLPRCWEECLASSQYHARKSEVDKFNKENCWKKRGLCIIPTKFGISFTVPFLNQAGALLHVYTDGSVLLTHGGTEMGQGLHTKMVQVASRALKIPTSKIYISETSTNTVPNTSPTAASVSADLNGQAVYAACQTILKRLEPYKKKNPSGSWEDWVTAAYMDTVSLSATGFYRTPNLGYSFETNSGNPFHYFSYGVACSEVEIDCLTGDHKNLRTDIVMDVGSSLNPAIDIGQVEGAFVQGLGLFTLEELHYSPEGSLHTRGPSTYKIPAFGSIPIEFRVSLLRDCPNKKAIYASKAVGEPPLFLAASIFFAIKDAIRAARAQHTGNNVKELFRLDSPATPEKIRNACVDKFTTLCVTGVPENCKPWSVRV
Chain of xanthine oxidase (XO) (P47989 whole entry, species assumed): as above

The term melting point denotes the temperature, or range, at which the solid turns liquid. For orientation: IC50 means the point on the concentration scale where inhibition reaches its midpoint. The compound `C=C(C)C1CCC2(C)C(C(=O)C=C3C4CC(C)(C(=O)NC(C)C)CCC4(C)CCC32C)C1(C)CCC(=O)OC` (stereo not drawn) [Compound 14] returned a melting point of 80 to 85 °C. Besides, the “inhibition of iNOS protein expression” value in data set [1] is “significantly inhibited the iNOS protein expression”. Further, in data set [2], the “protective effect on oxidative DNA damage caused by O2−” value is given as “significant protective effects”. In data set [3], this compound gave an IC50 of 192 ± 2.7 µM. For the same compound, the 50% inhibitory concentration (IC50) in data set [4] worked out at 15.6 ± 1.7 µM. The IC50 in data set [5] (Mus musculus, RAW264.7) stood at 13.1 ± 5 µM.

As for `CC1(C)C(=O)CC[C@]2(C)[C@H]3C(=O)C=C4[C@@H]5C[C@@](C)(C(=O)O)CC[C@]5(C)CC[C@@]4(C)[C@]3(C)CC[C@@H]12` [Compound 2], the “protective effect on oxidative DNA damage caused by O2−” value in data set [2] is on record as “significant protective effects”. In data set [6], the “inhibition of XO activity” value was “weakly inhibit”. Further, the IC50 is 10.3 ± 5.2 µM in data set [7] and over 30 µM in data set [5]. Moreover, the “% of inhibition of NO2− accumulation (in parentheses)” value in data set [5] (at the highest concentration, RAW 264.7, LPS) came out at 45.6 ± 9.1%. Moreover, the “inhibitory effect on NO accumulation in the media induced by LPS” value in data set [5] (each at 30 μM, RAW 264.7) was “about 40%”.
